Results taken from patent US7671035B2, “Epidermal growth factor receptor antisense oligonucleotides” (Idera Pharmaceuticals, Inc., priority 2001, dated 2010).
pIC50: −log10 of the molar value. In the oligonucleotide strings, read from the 5' end, every base follows the letter of its sugar. An asterisk marks phosphorothioate; unmarked linkages are phosphodiester. Other units and linkages are bracketed, terminal groups are in braces. A string of capitals states the bases alone. d = 2'-deoxy (DNA)

Key:
[1] = test system: GEO cells; assay: Soft agar growth of GEO cells, antisense MBO in combination with cytotoxic drugs; type: cell-based, human; conditions: for growth inhibition: soft agar; for growth inhibitory effect in combination with cytotoxic drugs: GEO cells on soft agar, all doses, with each of cisplatin, doxorubicin, paclitaxel, topotecan (FIGS. 5, 6)
Protocol: FIG. 5A is a graphic representation showing the growth inhibitory effects of AS23 (0.01 μM, […], 0.1 μM) in combination with cisplatin on the growth of CEO cells in soft agar. Cells were treated with the indicated concentrations of cytotoxic drug on day 1, followed by the indicated concentrations of EGFR-AS oligonucleotide on each day from day 2 to day 4. Colonies were counted after 10 to 14 days. Data represent the average (±standard deviation) of three different experiments, each performed in triplicate.
The invention also provides a method of potentiating the growth inhibitory effect of a cytotoxin on a cancer cell. In this method, the cell is contacted with an oligonucleotide of the invention, as well as the cytotoxin. For example, the growth inhibitory effects of AS23 and AS24 on cancer cells were examined in combination with four different cytotoxins: cisplatin, doxorubicin, paclitaxel, and topotecan. […] When lower doses of these agents were used, the antiproliferative effect was clearly cooperative. […] The cooperativity quotient of this treatment, defined as the ratio between the actual growth inhibition obtained with cisplatin followed by AS23 MBO and the sum of the growth inhibition achieved by each agent, was approximately 1.8.
Cells (10^4 cells/well) were suspended in 0.5 ml of 0.3% Difco Noble agar (Difco, Detroit, Mich.) supplemented with complete culture medium. This suspension was layered over 0.5 ml of 0.8% agar-medium base layer in 24 multiwell cluster dishes (Becton Dickinson, Lincoln Park, N.J.) and treated on days 1, 2 and 3 with different concentrations of the various EGFR-AS oligonucleotides alone and/or in combination on day 1 with the indicated concentrations of cytotoxic drugs. After 10 to 14 days, cells were stained with nitro blue tetrazolium (Sigma, St. Louis, Mo.) and colonies larger than 0.05 mm were counted.

[2] = test system: human GEO colon cancer cells; assay: Soft agar (anchorage-independent) colony growth of GEO cells; type: cell-based; conditions: read-out: IC50, inhibition of GEO cell soft agar growth
Protocol: Antisense oligonucleotides having SEQ ID NOS: 1-10 were designed and evaluated for the ability to inhibit the anchorage-independent growth of human GEO colon cancer cells. Human cancer cells useful for this study are GEO cells.
The IC50 determined by treatment with these antisense oligonucleotides varied between 0.1 and 0.7 μM. Based on the nucleotide sequence and on the growth inhibitory activity, two sequences (corresponding to AS14 (SEQ 10 NO: 14) and AS22 (SEQ ID NO: 22)) were modified in their backbone structure as hybrid DNA-RNA 20-mer oligonucleotides (AS23 (SEQ ID NO: 23)) and AS24 (SEQ ID NO: 24)) and further characterized for their biological characteristics. GEO cells were grown as colonies in soft agar and treated with different concentrations of the indicated antisense oligonucleotides. IC50 values were obtained from three different experiments, each performed in triplicate.
GEO human colon cancer, OVCAR-3 human ovarian cancer, and ZR-75-1 human breast cancer cell lines were obtained from the American Type Culture Collection, Manassas, Va. (OVCAR, ATCC No. HTB-161; ZR-75-1, ATCC No. CRL-1500). […]
Cells (10^4 cells/well) were suspended in 0.5 ml of 0.3% Difco Noble agar (Difco, Detroit, Mich.) supplemented with complete culture medium. […] After 10 to 14 days, cells were stained with nitro blue tetrazolium (Sigma, St. Louis, Mo.) and colonies larger than 0.05 mm were counted.

[3] = test system: EGFR; assay: Western blot of EGFR expression in GEO cells; type: cell-based, human; conditions: GEO cells treated three days at 0.1 μM or 0.5 μM, compared to scramble oligonucleotide-treated cells (FIG. 1B)
Protocol: FIG. 1A is a representation of a Western blot showing EGFR expression in GEO cancer cells following treatment with EGFR antisense oligonucleotides. GEO cells were treated for three days with 0.5 μM of the indicated oligonucleotides (AS 5, 6, 7, 8, 9, 10), 0.5 μM, or with 0.5 μM scramble sequence oligonucleotides. Equal amounts (50 μg/lane) of protein extracts were resolved by a 7.5% SDS-PAGE and probed with an anti-human EGFR monoclonal antibody. Immunoreactive proteins were visualized by enhanced chemiluminescence.
FIG. 1B is a representation of a Western blot showing EGFR expression in CEO cells following treatment with EGFR antisense oligonucleotides. GEO cells were treated for three days with AS23 and AS24 oligonucleotides (0.1 or 0.5 μM), respectively; or with 0.5 μM of scramble sequence oligonucleotides. Equal amounts (50 μg/lane) of protein extracts were resolved by a 7.5% SDS-PAGE and probed with an anti-human EGFR monoclonal antibody. Immunoreactive proteins were visualized by enhanced chemiluminescence. […]

[4] = test system: p27; assay: Western blot of p27 expression in GEO cells; type: cell-based, human; conditions: three days, 0.1 and 0.5 μM (FIG. 3A)
Protocol: (§1) Equal amounts (50 μg/lane) of protein extracts were resolved by a 12% SDS-PAGE and probed with an anti-human p27 MAb. Immunoreactive proteins were visualized by enhanced chemiluminescence.
(§2) The ability of EGFR antisense treatment to induce p27 was therefore examined.
(§3) 50 μg total cell lysates from GEO cells, which were treated each day for three days with the indicated concentrations of antisense oligonucleotides, were fractionated through 7.5% or 12% sodium dodecyl sulfate-polyacrylamide gels, transferred to nitrocellulose filters and incubated with an anti-human EGFR mouse MAb or with an anti-human p27 mouse MAb (both antibodies were purchased from Transduction Laboratories, Lexington, Ky.), respectively, followed by horseradish-peroxidase antiserum (Bio-Rad Laboratories, Milano, Italy). Immunoreactive proteins were visualized by enhanced chemiluminescence (Amersham International, England).

[5] = test system: p27; assay: Western blot of p27 expression in ZR-75-1 cells; type: cell-based, human; conditions: three days, 0.1 and 0.5 μM (FIG. 3B)
Protocol: as §1, §2, §3

Molecule | pIC50 [2] | EGFR protein expression (Western blot) [3] | growth inhibitory effect in combination with cytotoxic drugs [1] | other results
N.N.[Cl][Pt][Cl] [cisplatin, CIS-diamminedichloroplatinum, reference compound] |  |  |  | growth inhibition ([1]; GEO cells, 0.25 μg/ml cisplatin alone): approximately 20%
ACACTGCCTGAGAGTTGCCC (antisense dA*dC*dA*dC*dT*dG*dC*dC*dT*dG*dA*dG*dA*dG*dT*dT*dG*dC*dC*dC) [AS1] | ~5.46 |  |  | 
CTCTTCTTGACAGTCTGATG (antisense dC*dT*dC*dT*dT*dC*dT*dT*dG*dA*dC*dA*dG*dT*dC*dT*dG*dA*dT*dG) [AS10] | ~6.30 |  |  | 
UAUGATCTGTCACAGCUUGA (phosphorothioate linkages, 2'-O-methyl ribonucleosides, further chemistry not given here) [AS23] |  | almost complete inhibition | supra-additive growth inhibitory effect | p27 expression (Western blot) [4]: dose-dependent increase in p27 expression; p27 expression (Western blot) [5]: dose-dependent increase in p27 expression; growth inhibition ([1]; GEO cells, 0.05 μM AS23 MBO alone): approximately 20%; inhibition of colony formation in soft agar ([1]; GEO cells, combined treatment 0.25 μg/ml cisplatin followed by 0.05 μM AS23 MBO (FIG. 5A)): 70%; cooperativity quotient ([1]; ratio of growth inhibition with cisplatin followed by AS23 MBO to the sum of growth inhibition by each agent, GEO cells): approximately 1.8
UGCTAGGTTTCCTCCCUUUC (phosphorothioate linkages, 2'-O-methyl ribonucleosides, further chemistry not given here) [AS24] |  | almost complete inhibition | supra-additive growth inhibitory effect | 
